Target: PD-L1 His protein / PD-1 Fc protein (Homo sapiens, UniProt Q9NZQ7)
Assay: HTRF Assay (PD-1/PD-L1 interaction)
Format: binding
Settings: PD-L1 His 6 nM, PD-1 Fc 6 nM
Protocol: PD-L1 His protein was prepared and added at the final concentration of 6 nM in the White opaque 384 well plate (Corning cat #3824BC). PD-L1 small molecule inhibitors were diluted by 3-fold starting from 20 μM and a final concentration of 0.001 μM and added to the well. PD-1 Fc protein was added at the final concentration of 6 nM. PD-L1 His protein, PD-L1 small molecule inhibitors, and PD1 Fc proteins were added to the well in this order, with each 5 μl volume, and were incubated for 15 minutes at room temperature. PAb anti-Human IgG-XL665 (Cisbio, cat #61HFCXLA) and Mab anti-6HIS Tb cryptate Gold (Cisbio, cat #61HI2TLA) were mixed at 6.7 nM and 0.35 nM respectively, and total 5 μl volume of mixture was added to the well and incubated at room temperature for 1 hour. The plate was read using PerkinElmer Envision plate reader and data was analyzed by Prism 6 software.

PD-L1 His protein / PD-1 Fc protein, sequence (Q9NZQ7 19-238 limits assumed): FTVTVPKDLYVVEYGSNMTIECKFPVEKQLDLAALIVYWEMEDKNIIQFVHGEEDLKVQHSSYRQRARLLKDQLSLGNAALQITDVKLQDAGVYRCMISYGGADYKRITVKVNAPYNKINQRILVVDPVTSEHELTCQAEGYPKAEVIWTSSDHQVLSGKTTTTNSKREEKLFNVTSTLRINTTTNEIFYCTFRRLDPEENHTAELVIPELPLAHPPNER

Row | SMILES | IC50 [nM]
1 | COc1nc(-c2cccc(-c3cccc(-c4ccn5c(=O)c(CNC6CC7(CCNC7=O)C6)cnc5c4)c3Cl)c2Cl)ccc1CNC[C@@H]1CCC(=O)N1 (single isomer, unassigned) [Example 249] | 0.6
2 | COc1nc(-c2cccc(-c3cccc(-c4ccn5c(=O)c(CNC6CC7(CCNC7=O)C6)cnc5c4)c3Cl)c2Cl)ccc1CNC[C@@H]1CCC(=O)N1 (single isomer, unassigned) [Example 250] | 1
3 | COc1nc(-c2cccc(-c3cccc(-c4ccn5c(=O)c(CNC6CC7(CCNC7=O)C6)cnc5c4)c3Cl)c2Cl)ccc1CNC[C@@H]1CCC(=O)N1 (single isomer, unassigned) [Example 251] | 8.9
4 | Cc1c(COc2cc(OCc3cncc(C(N)=O)c3)c(CNCCO)cc2Cl)cccc1-c1cccc(-c2ccn3c(=O)c(CNCCO)cnc3c2)c1 [Example 1, 5-((4-Chloro-2-(((2-hydroxyethyl)amino)methyl)-5-((3′-(3-(((2-hydroxyethyl)amino)methyl)-4-oxo-4H-pyrido[1,2-a]pyrimidin-8-yl)-2-methyl-[1,1′-biphenyl]-3-yl)methoxy)phenoxy)methyl)nicotinamide] | 2.8
5 | Cc1c(NC(=O)c2ccc(CNCCO)cn2)cccc1-c1cccc(-c2ccn3c(=O)c(CNCCO)cnc3c2)c1 [Example 2, 5-(((2-Hydroxyethyl)amino)methyl)-N-(3′-(3-(((2-hydroxyethyl)amino)methyl)-4-oxo-4H-pyrido[1,2-a]pyrimidin-8-yl)-2-methyl-[1,1′-biphenyl]-3-yl)picolinamide] | 79
6 | Cc1c(COc2cc(OCc3cncc(C#N)c3)c(CNCCO)cc2Cl)cccc1-c1cccc(-c2ccn3c(=O)c(CNCCO)cnc3c2)c1C [Example 3, 5-((4-Chloro-2-(((2-hydroxyethyl)amino)methyl)-5-((3′-(3-(((2-hydroxyethyl)amino)methyl)-4-oxo-4H-pyrido[1,2-a]pyrimidin-8-yl)-2,2′-dimethyl-[1,1′-biphenyl]-3-yl)methoxy)phenoxy)methyl)nicotinonitrile] | 1.2
7 | Cc1c(COc2cc(OCc3cncc(C#N)c3)c(CNCCO)cc2Cl)cccc1-c1cccc(-c2ccn3c(=O)c(CNCCO)cnc3c2)c1 [Example 4, 5-((4-Chloro-2-(((2-hydroxyethyl)amino)methyl)-5-((3′-(3-(((2-hydroxyethyl)amino)methyl)-4-oxo-4H-pyrido[1,2-a]pyrimidin-8-yl)-2-methyl-[1,1′-biphenyl]-3-yl)methoxy)phenoxy)methyl)nicotinonitrile] | 2
8 | Cc1c(COc2cc(OCc3cncc(C#N)c3)c(CNCCO)cc2Cl)cccc1-c1cccc(-n2cnc3cc(CNCCO)ccc3c2=O)c1 [Example 5, 5-((4-Chloro-2-(((2-hydroxyethyl)amino)methyl)-5-((3′-(7-(((2-hydroxyethyl)amino)methyl)-4-oxoquinazolin-3(4H)-yl)-2-methyl-[1,1′-biphenyl]-3-yl)methoxy)phenoxy)methyl)nicotinonitrile] | 150
9 | Cc1c(COc2cc(OCc3cncc(C#N)c3)c(CNCCO)cc2Cl)cccc1-c1cccc(-n2cnc3cc(CNCCO)ccc3c2=O)c1C [Example 6, 5-((4-Chloro-2-(((2-hydroxyethyl)amino)methyl)-5-((3′-(7-(((2-hydroxyethyl)amino)methyl)-4-oxoquinazolin-3(4H)-yl)-2,2′-dimethyl-[1,1′-biphenyl]-3-yl)methoxy)phenoxy)methyl)nicotinonitrile] | 44
10 | Cc1c(COc2cc(OCc3cncc(C#N)c3)c(CN[C@@](C)(CO)C(=O)O)cc2Cl)cccc1-c1cccc(-c2ccn3c(=O)c(CN[C@@](C)(CO)C(=O)O)cnc3c2)c1C [Example 7, (S)-2-(((8-(3′-((4-((((S)-2-Carboxy-1-hydroxypropan-2-yl)amino)methyl)-2-chloro-5-((5-cyanopyridin-3-yl)methoxy)phenoxy)methyl)-2,2′-dimethyl-[1,1′-biphenyl]-3-yl)-4-oxo-4H-pyrido[1,2-a]pyrimidin-3-yl)methyl)amino)-3-hydroxy-2-methylpropanoic acid] | 0.2
11 | Cc1c(COc2cc(OCc3cncc(C#N)c3)c(CNCCO)cc2Cl)cccc1-c1cccc(-c2ccc3c(c2)C(=O)N(C)CC(=O)N3CCNCCO)c1C [Example 8, 5-((4-Chloro-5-((3′-(1-(2-((2-hydroxyethyl)amino)ethyl)-4-methyl-2,5-dioxo-2,3,4,5-tetrahydro-1H-benzo[e][1,4]diazepin-7-yl)-2,2′-dimethyl-[1,1′-biphenyl]-3-yl)methoxy)-2-(((2-hydroxyethyl)amino)methyl)phenoxy)methyl)nicotinonitrile] | 0.8
12 | Cc1c(COc2cc(OCc3cncc(C#N)c3)c(CNCCO)cc2Cl)cccc1-c1cccc(-c2ccn3c(=O)c(CNCCO)ccc3c2)c1C [Example 9, 5-((4-Chloro-2-(((2-hydroxyethyl)amino)methyl)-5-((3′-(3-(((2-hydroxyethyl)amino)methyl)-4-oxo-4H-quinolizin-8-yl)-2,2′-dimethyl-[1,1′-biphenyl]-3-yl)methoxy)phenoxy)methyl)nicotinonitrile] | 1.1
13 | Cc1c(COc2cc(OCc3cncc(C#N)c3)c(CN3CCCC[C@H]3C(=O)O)cc2Cl)cccc1-c1cccc(-c2ccn3c(=O)c(CN4CCCC[C@H]4C(=O)O)cnc3c2)c1C [Example 11, (S)-1-((8-(3′-((4-(((S)-2-Carboxypiperidin-1-yl)methyl)-2-chloro-5-((5-cyanopyridin-3-yl)methoxy)phenoxy)methyl)-2,2′-dimethyl-[1,1′-biphenyl]-3-yl)-4-oxo-4H-pyrido[1,2-a]pyrimidin-3-yl)methyl)piperidine-2-carboxylic acid] | 0.6
14 | Cc1c(COc2cc(OCc3cncc(C#N)c3)c(CNC[C@@H]3CCC(=O)N3)cc2Cl)cccc1-c1cccc(-c2ccn3c(=O)c(CNC[C@@H]4CCC(=O)N4)cnc3c2)c1C [Example 12, 5-((4-Chloro-5-((2,2′-dimethyl-3′-(4-oxo-3-(((((S)-5-oxopyrrolidin-2-yl)methyl)amino)methyl)-4H-pyrido[1,2-a]pyrimidin-8-yl)-[1,1′-biphenyl]-3-yl)methoxy)-2-(((((S)-5-oxopyrrolidin-2-yl)methyl)amino)methyl)phenoxy)methyl)nicotinonitrile] | 0.3
15 | Cc1c(COc2cc(OCc3cncc(C#N)c3)c(CNC[C@H]3CCC(=O)N3)cc2Cl)cccc1-c1cccc(-c2ccn3c(=O)c(CNC[C@H]4CCC(=O)N4)cnc3c2)c1C [Example 13, 5-((4-Chloro-5-((2,2′-dimethyl-3′-(4-oxo-3-(((((R)-5-oxopyrrolidin-2-yl)methyl)amino)methyl)-4H-pyrido[1,2-a]pyrimidin-8-yl)-[1,1′-biphenyl]-3-yl)methoxy)-2-(((((R)-5-oxopyrrolidin-2-yl)methyl)amino)methyl)phenoxy)methyl)nicotinonitrile] | 0.8
16 | Cc1c(-c2ccn3c(=O)c(CNCCO)cnc3c2)cccc1-c1cccc(COc2cc(OCc3cncc(C#N)c3)c(CNCCO)cc2Cl)c1Cl [Example 14, 5-((4-Chloro-5-((2-chloro-3′-(3-(((2-hydroxyethyl)amino)methyl)-4-oxo-4H-pyrido[1,2-a]pyrimidin-8-yl)-2′-methyl-[1,1′-biphenyl]-3-yl)methoxy)-2-(((2-hydroxyethyl)amino)methyl)phenoxy)methyl)nicotinonitrile] | 0.4

Reference: US20230143612A1 (Arbutus Biopharma Corporation, priority 2020, published 2023)
